Experiment: surface area of crystals formed with and without sonication
Assay type: physicochemical
Description: The method can also include a step of forming a premix, including the substeps of adding, after the step of dissolving, gluconic acid to provide an almost 1:1 premix mixture of cobalt acetate and cobalt gluconate compounds, and then sonicating the premix mixture. The premix remained in solution at 15° C. for over ten days. When additional gluconic acid (1.1 eq of total gluconic acid to acetic acid) was added, and gently mixed, within a half hour precipitation of very fine cobalt gluconate crystals occurred.

Substance: cobalt gluconate
- surface area relative to that observed with sonication: less than 20 times
